For 21 molecules, IC50 results are on record in patent US6232305A, “Substituted amino bicyclic-β-lactam penam and cepham derivatives as cysteine protease inhibitors” (Naeja Pharmaceutical Inc., priority 1998, dated 2001).

Molecules are shown by their SMILES.

Usually IC50 stands for the concentration needed to halve the response being measured. A low value points to inhibition by little substance.

One test deals with Cathepsin L (Rattus norvegicus, UniProt P07154). Nature of the test: In vitro inhibition of cathepsin L. The format is biochemical. Conditions: r rat cathepsin L; substrate N-CBZ-Phe-Arg-AMC; pH 5.0; 10 min incubation at room temperature. As to the method: TEST EXAMPLE 2 In Vitro Assay Procedure for Cathepsin L […] After 10 min of incubation at room temperature, a 20 μl of 1 mM substrate (N-CBZ-Phe-Arg-AMC, dissolved in DMSO) was added to initiate reaction. Reading is followed up for 10 min at the fluoroscan reader (excitation at 380 nm emission at 460 nm).

For the next test, the target named is Cathepsin B (Rattus norvegicus, UniProt P00787). Nature of the test: In vitro inhibition of cathepsin B. Conditions: r rat cathepsin B; substrate N-CBZ-Phe-Arg-AMC; pH 5.1; 10 min incubation at room temperature. The format is biochemical. As for the experimental part:
TEST EXAMPLE 1 In Vitro Assay Procedure for Cathepsin B The compounds of formula I were tested for inhibition of cathepsin B using the known method (A. J. Barret et al., Biochem. J. 1982, 201, 189-198). […] After 10 min of incubation at room temperature, a 20 μl of 5 mM substrate (N-CBZ-Phe-Arg-AMC, dissolved in DMSO) was added to initiate reaction. Reading is followed up for 10 min at the fluoroscan reader (excitation at 380 nm emission at 460 nm).

Sequence of Cathepsin L (P07154 114-334): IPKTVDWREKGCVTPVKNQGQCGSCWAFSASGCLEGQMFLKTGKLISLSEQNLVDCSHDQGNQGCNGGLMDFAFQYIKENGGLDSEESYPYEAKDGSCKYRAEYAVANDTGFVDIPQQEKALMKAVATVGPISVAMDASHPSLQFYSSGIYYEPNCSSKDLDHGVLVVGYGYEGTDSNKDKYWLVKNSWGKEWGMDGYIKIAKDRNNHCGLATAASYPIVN
Sequence of Cathepsin B (P00787 80-339): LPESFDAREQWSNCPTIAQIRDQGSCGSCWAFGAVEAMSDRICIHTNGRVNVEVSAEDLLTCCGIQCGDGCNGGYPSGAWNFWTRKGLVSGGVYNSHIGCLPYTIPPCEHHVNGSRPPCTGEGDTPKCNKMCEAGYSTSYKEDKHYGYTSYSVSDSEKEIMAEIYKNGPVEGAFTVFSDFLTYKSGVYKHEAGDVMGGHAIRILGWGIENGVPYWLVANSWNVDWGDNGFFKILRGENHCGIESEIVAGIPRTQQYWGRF

Regarding `O=C(N[C@@H](Cc1ccccc1)C(=O)N[C@@H]1C(=O)N2CCS[C@@H]12)OCc1ccccc1` [Example 1, (5S,6R)-6-(2S-2-benzyloxycarbonylamino-2-phenylmethyl-acetamido)-4-thia-1-azabicyclo [3,2,0] heptan-7-one], the results for the concentration for half-maximal inhibition (IC50) on Cathepsin L and at Cathepsin B were 6680 nM and more than 50 µM, respectively. Turning to `O=C(N[C@@H](Cc1ccccc1)C(=O)N[C@@H]1C(=O)N2CCS(=O)(=O)[C@@H]12)OCc1ccccc1` [Example 2, (5S,6R)-6-(2S-2-benzyloxycarbonylamino-2-phenylmethyl-acetamido)-4,4-dioxo-4-thia-1-azabicyclo [3,2,0] heptan-7-one], the IC50 was found to be 1.4 nM on Cathepsin L and 0.35 µM at Cathepsin B. For the molecule `O=C(N[C@@H](Cc1ccccc1)C(=O)N[C@@H]1C(=O)N2CCS(=O)(=O)[C@H]12)OCc1ccccc1` [Example 3, (5R,6R)-6-(2S-2-benzyloxycarbonylamino-2-phenylmethyl-acetamido)-4,4-dioxo-4-thia-1-azabicyclo [3,2,0] heptan-7-one], the values for the IC50 on Cathepsin L and against Cathepsin B were 9.6 nM and 6.01 µM, respectively. For `O=C(CCc1ccccc1)N[C@@H](CC1CCCCC1)C(=O)N[C@@H]1C(=O)N2CCS[C@@H]12` [Example 4, (5S,6R)-6-{2S-2-(3-phenylpropionoyl)amino-2-cyclohexylmethyl-acetamido}-4-thia-1-azabicyclo [3,2,0] heptan-7-one] the same measures were more than 50000 nM and more than 50 µM. The matching figures for `O=C(CCc1ccccc1)N[C@@H](CC1CCCCC1)C(=O)N[C@@H]1C(=O)N2CCS(=O)(=O)[C@@H]12` [Example 5, (5S,6R)-6-{2S-2-(3-phenylpropionoyl)amino-2-cyclohexylmethyl-acetamido}-4,4-dioxo-4-thia-1-azabicyclo [3,2,0] heptan-7-one]: 0.7 nM and 0.43 µM. Take `O=C(CCc1ccccc1)N[C@@H](Cc1ccc2ccccc2c1)C(=O)N[C@@H]1C(=O)N2CCS[C@@H]12` [Example 6, (5S,6R)-6-{2S-2-(3-phenylpropionoyl)amino-2-(2-naphthyl)methyl-acetamido}-4-thia-1-azabicyclo [3,2,0] heptan-7-one]: the IC50 was found to be 430 nM against Cathepsin L and 10.5 µM against Cathepsin B. For `O=C(CCc1ccccc1)N[C@@H](Cc1ccc2ccccc2c1)C(=O)N[C@@H]1C(=O)N2CCS(=O)(=O)[C@@H]12` [Example 7, (5S,6R)-6-{2S-2-(3-phenylpropionoyl)amino-2-(2-naphthyl)methyl-acetamido}-4,4-dioxo-4-thia-1-azabicyclo [3,2,0] heptan-7-one] the same measures were 3 nM and 0.39 µM. The matching figures for `O=C(CCc1ccccc1)N[C@@H](Cc1cccs1)C(=O)N[C@@H]1C(=O)N2CCS[C@@H]12` [Example 8, (5S,6R)-6-{2S-2-(3-phenylpropionoyl)amino-2-(2-thienyl)methyl-acetamido}-4-thia-1-azabicyclo [3,2,0] heptan-7-one]: 11600 nM and more than 50 µM. On to `O=C(CCc1ccccc1)N[C@@H](Cc1cccs1)C(=O)N[C@@H]1C(=O)N2CCS(=O)(=O)[C@@H]12` [Example 9, (5S,6R)-6-{2S-2-(3-phenylpropionoyl)amino-2-(2-thienyl)methyl-acetamido}-4,4-dioxo-4-thia-1-azabicyclo [3,2,0] heptan-7-one], for which the 50% inhibitory concentration (IC50) was found to be 3 nM against Cathepsin L and 0.43 µM against Cathepsin B. The matching figures for `O=C(CCc1ccccc1)N[C@@H](Cc1cccc(F)c1)C(=O)N[C@@H]1C(=O)N2CCS[C@@H]12` [Example 10, (5S,6R)-6-{2S-2-(3-phenylpropionoyl)amino-2-(3-fluorophenyl)methyl-acetamido}4-4-thia-1-azabicyclo [3,2,0] heptan-7-one]: 11300 nM and more than 50 µM. The matching figures for `O=C(CCc1ccccc1)N[C@@H](Cc1cccc(F)c1)C(=O)N[C@@H]1C(=O)N2CCS(=O)(=O)[C@@H]12` [Example 11, (5S,6R)-6-{2S-2-(3-phenylpropionoyl)amino-2-(3-fluorophenyl)methyl-acetamido}-4,4-dioxo-4-thia-1-azabicyclo [3,2,0] heptan-7-one]: 3.3 nM and 1 µM. For `O=C(N[C@@H](Cc1cccnc1)C(=O)N[C@@H]1C(=O)N2CCS[C@@H]12)OCc1ccccc1` [Example 12, (5S,6R)-6-{2S-2-benzyloxycarbonylamino-2-(3-pyridyl)methyl-acetamido}-4-thia-1-azabicyclo [3,2,0] heptan-7-one] the same measures were 11700 nM and more than 50 µM. For `O=C(N[C@@H](Cc1cccnc1)C(=O)N[C@@H]1C(=O)N2CCS(=O)(=O)[C@@H]12)OCc1ccccc1` [Example 13, (5S,6R)-6-{2S-2-benzyloxycarbonylamino-2-(3-pyridyl)methyl-acetamido}-4,4-dioxo-4-thia-1-azabicyclo [3,2,0] heptan-7-one], the IC50 came to 1.7 nM on Cathepsin L and 1.3 µM on Cathepsin B. For `O=C(N[C@@H](Cc1ccccc1)C(=O)N[C@@H]1C(=O)N2CCCS[C@@H]12)OCc1ccccc1` [Example 14, (6S,7R)-7-(2S-2-benzyloxycarbonylamino-2-phenylmethyl-acetamido)-5-thia-1-azabicyclo [4,2,0] octan-8-one] the same measures were more than 50000 nM and more than 50 µM. Regarding `O=C(N[C@@H](Cc1ccccc1)C(=O)N[C@@H]1C(=O)N2CCCS(=O)(=O)[C@@H]12)OCc1ccccc1` [Example 15, (6S,7R)-7-(2S-2-benzyloxycarbonylamino-2-phenylmethyl-acetamido)-5,5-dioxo-5-thia-1-azabicyclo [4,2,0] octan-8-one], the IC50 against Cathepsin L is 2120 nM; at Cathepsin B, more than 50 µM. `O=C(N[C@@H](Cc1ccccc1)C(=O)N[C@@H]1C(=O)N2CCCS(=O)(=O)[C@H]12)OCc1ccccc1` [Example 16, (6R,7R)-7-(2S-2-benzyloxycarbonylamino-2-phenylmethyl-acetamido)-5,5-dioxo-5-thia-1-azabicyclo [4,2,0] octan-8-one]: the half-inhibitory concentration (IC50) against Cathepsin B is more than 50 µM. For `O=C(N[C@@H](Cc1ccccc1)C(=O)N[C@@H]1C(=O)N2CC(O)CS[C@@H]12)OCc1ccccc1` (stereo partly drawn) [Example 17, (6S,7R)-7-(2S-2-benzyloxycarbonylamino-2-phenylmethyl-acetamido)-3-hydroxy-5-thia-1-azabicyclo [4,2,0] octan-8-one], the 50% inhibitory concentration (IC50) at Cathepsin L was 2190 nM; on Cathepsin B, more than 50 µM. The matching figures for `COC(=O)[C@@H]1N2C(=O)[C@@H](NC(=O)[C@H](Cc3ccccc3)NC(=O)OCc3ccccc3)[C@H]2S(=O)(=O)C1(C)C` [Example 18, Methyl (2S,5R,6R)-6-(2S-2-benzyloxycarbonylamino-2-phenylmethyl-acetamido)-3,3-dimethyl-7-oxo-4,4-dioxo4-thia-1-azabicyclo[3,2,0]heptane-2-carboxylate]: 1740 nM and 28.2 µM.

For `CC1(C)[C@H](C(=O)O)N2C(=O)[C@@H](NC(=O)[C@H](Cc3ccccc3)NC(=O)CCc3ccccc3)[C@H]2S1(=O)=O` [Example 19, (2S,5R,6R)-6-{2S-2-(3-phenylpropionoyl)amino-2-phenylmethyl-acetamido}-3,3-dimethyl-7-oxo-4,4-dioxo-4-thia-1-azabicyclo [3,2,0] heptane-2-carboxylic acid], the half-inhibitory concentration (IC50) at Cathepsin L is 6770 nM; against Cathepsin B, more than 50 µM. With `O=C(N[C@H](Cc1ccccc1)C(=O)N[C@@H]1C(=O)N2CCS(=O)(=O)[C@@H]12)OCc1ccccc1` [Example 20, (5S,6R)-6{2R-2-benzyloxycarbonylamino-2-phenylmethyl-acetamido}-4,4-dioxo4-thia-1-azabicyclo[3,2,0] heptan-7-one], the IC50 against Cathepsin L was 44 nM; against Cathepsin B, more than 50 µM. As for `O=C(N[C@@H](Cc1ccccc1)C(=O)N[C@@H]1C(=O)N2CC[S+]([O-])[C@@H]12)OCc1ccccc1` (stereo partly drawn) [Example 21, (5S,6R)-6-{2S-2-benzyloxycarbonylamino-2-phenylmethyl-acetamido}-4-oxo-4-thia-1-azabicyclo [3,2,0] heptan-7-one], the values for the half-inhibitory concentration (IC50) against Cathepsin L and against Cathepsin B were 68 nM and 16.4 µM, respectively.
